# Experimental data taken from PubChem BioAssay (NCI).
#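 Following 48 hours of exposure in 96-well plates, responses at five concentrations were used to interpolate endpoints linearly. TGI: concentration producing complete growth inhibition.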
# Tests used:
# Experiment in all cases: growth of human tumour cells (NCI), 48 h
# [1] = tested on: OVCAR-5 ovarian
# [2] = tested on: SK-MEL-2 melanoma
# [3] = tested on: MDA-MB-231 breast
# [4] = tested on: MOLT-4 leukemia
# [5] = tested on: SNB-75 CNS
# [6] = tested on: SF-295 CNS
# [7] = tested on: BT-549 breast
# [8] = tested on: SNB-19 CNS
# [9] = tested on: OVCAR-8 ovarian
# [10] = tested on: MDA-MB-435
# [11] = tested on: UACC-257 melanoma
# [12] = tested on: NCI-H23 lung
# [13] = tested on: SF-539 CNS
# [14] = tested on: ACHN renal
# [15] = tested on: CCRF-CEM leukemia
# [16] = tested on: KM12 colon
# [17] = tested on: SK-MEL-28 melanoma
Structure (SMILES),TGI [1] [µM],TGI [2] [µM],TGI [3] [µM],TGI [4] [µM],TGI [5] [µM],TGI [6] [µM],TGI [7] [µM],TGI [8] [µM],TGI [9] [µM],TGI [10] [µM],TGI [11] [µM],TGI [12] [µM],TGI [13] [µM],TGI [14] [µM],TGI [15] [µM],TGI [16] [µM],TGI [17] [µM]
CCCCCCC(=O)O[C@H]1CC[C@H]2[C@@H]3CCC4C/C(=N/NC(=O)c5cccc6c(=O)c7ccccc7[nH]c56)C=C(C)[C@]4(C)[C@H]3CC[C@]12C (stereo partly drawn),> 25,> 25,> 25,> 25,> 25,> 25,> 25,> 25,> 25,> 25,> 25,> 25,> 25,> 25,> 25,> 25,–
C[C@H](NC(=O)c1ccc(CNC(=O)/C=C/c2cccc(Oc3ccccc3)c2)cc1)c1ccccc1,> 100,> 100,> 100,> 100,44.2,> 100,> 100,> 100,> 100,> 100,> 100,> 100,67.8,> 100,> 100,> 100,> 100
N#CC(=C1CCN(CCCC(=O)c2ccc(F)cc2)CC1)c1ccccc1,> 100,> 100,> 100,> 100,> 100,> 100,> 100,> 100,> 100,> 100,> 100,> 100,> 100,> 100,> 100,> 100,> 100
Cc1nn(C(=O)c2ccc(Cl)cc2)c2c1C(c1ccccc1[N+](=O)[O-])SC(N)=N2 (stereo not drawn),> 10,> 10,> 10,> 10,> 10,> 10,> 10,> 10,> 10,> 10,> 10,> 10,> 10,> 10,> 10,> 10,–
O=C(CCCN1CCC2(CC1)CC(=O)N(N1CCCCCC1)C2=O)c1ccccc1,> 100,> 100,> 100,> 100,> 100,> 100,> 100,> 100,> 100,> 100,> 100,> 100,> 100,> 100,> 100,–,> 100
CCCCc1ccc(Nc2nc(SC)c3[nH]cnc3n2)cc1,> 100,> 100,> 100,> 100,> 100,> 100,> 100,> 100,> 100,> 100,> 100,> 100,> 100,> 100,12.3,> 100,> 100
CCn1c(SCC(=O)NNC(=S)Nc2ccc([N+](=O)[O-])cc2)nc2ccccc2c1=O,> 100,> 100,> 100,65.8,> 100,> 100,> 100,> 100,> 100,> 100,> 100,> 100,> 100,> 100,> 100,> 100,> 100
CN(C)CCN(C)c1ccc2c(=O)n(CCN(C)C)c(=O)n3c4ccccc4c(=O)c1c23,12.1,6.84,4.23,0.135,3.5,8.38,15,9.7,7.15,3.18,4.73,2.23,2.15,0.849,0.293,8.08,6.81
C[C@@H](c1ccccc1)N1CN(C(=O)OCc2ccccc2)C(C)(C)CC1=O,> 100,> 100,> 100,> 100,> 100,> 100,> 100,> 100,> 100,> 100,> 100,> 100,> 100,> 100,> 100,> 100,> 100
Nc1ccc2c(SCc3ccc([N+](=O)[O-])cc3)c3ccccc3nc2c1,35.9,32.4,> 55.8,6.73,34.7,36.8,32.1,59.1,26.7,33.7,33.6,32.8,30.8,14.5,5.15,27,33.5
Cn1c(O)c(C=Nc2ccccc2[N+](=O)[O-])c(=O)n(C)c1=O,> 100,> 100,> 100,> 100,> 100,> 100,> 100,> 100,> 100,> 100,> 100,> 100,> 100,> 100,> 100,> 100,–
